The record followed here is ChEMBL document CHEMBL5579804, “Synthesis and kinetic evaluation of phosphomimetic inhibitors targeting type B ribose-5-phosphate isomerase from Mycobacterium tuberculosis” (Bioorg Med Chem Lett, 2024).

The target of data set [1] is T1, ribose-5-phosphate isomerase (Spinacia oleracea, UniProt Q8RU73).
T1 sequence (Q8RU73 whole entry): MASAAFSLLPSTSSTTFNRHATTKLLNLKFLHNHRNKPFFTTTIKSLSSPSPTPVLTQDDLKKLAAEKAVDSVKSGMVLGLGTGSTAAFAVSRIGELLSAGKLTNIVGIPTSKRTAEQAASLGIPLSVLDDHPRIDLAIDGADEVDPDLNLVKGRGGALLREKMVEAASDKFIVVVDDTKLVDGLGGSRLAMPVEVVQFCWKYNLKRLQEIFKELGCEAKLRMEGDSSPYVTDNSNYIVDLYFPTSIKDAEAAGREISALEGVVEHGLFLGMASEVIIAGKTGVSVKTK
Kind of data set: Competitive inhibition of Spinacia oleracea RPIA using D-ribose-5-phosphate as substrate.

Data set [2] deals with T2, Ribose-5-phosphate isomerase B (Escherichia coli (strain K12), UniProt P37351).
T2 sequence (P37351 whole entry): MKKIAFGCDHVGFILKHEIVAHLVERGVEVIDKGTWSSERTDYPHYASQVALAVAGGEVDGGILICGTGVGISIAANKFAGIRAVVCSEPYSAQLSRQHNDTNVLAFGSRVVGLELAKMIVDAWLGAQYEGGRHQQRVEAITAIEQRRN
Kind of data set: Competitive inhibition of Escherichia coli RPIB using D-ribose-5-phosphate as substrate.

For data set [3], the target named is T3, Ribose-5-phosphate isomerase B (Mycobacterium tuberculosis, UniProt P9WKD7).
T3 sequence (P9WKD7 whole entry): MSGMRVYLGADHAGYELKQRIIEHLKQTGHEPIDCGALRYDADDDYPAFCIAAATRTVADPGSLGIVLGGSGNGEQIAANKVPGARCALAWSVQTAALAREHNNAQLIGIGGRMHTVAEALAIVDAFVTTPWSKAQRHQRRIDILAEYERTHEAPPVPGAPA
Kind of data set: Competitive inhibition of Mycobacterium tuberculosis RPIB using D-ribose-5-phosphate as substrate.

Data set [4] deals with T1, ribose-5-phosphate isomerase. Kind of data set: Competitive inhibition of Spinacia oleracea RPIA assessed as inhibition constant using D-ribose-5-phosphate as substrate by Cheng-Prusoff equation analysis.
Data set [5] has as its target T2, Ribose-5-phosphate isomerase B. Kind of data set: Competitive inhibition of Escherichia coli RPIB assessed as inhibition constant using D-ribose-5-phosphate as substrate by Cheng-Prusoff equation analysis.
Data set [6] concerns the target T3, Ribose-5-phosphate isomerase B. Kind of data set: Competitive inhibition of Mycobacterium tuberculosis RPIB assessed as inhibition constant using D-ribose-5-phosphate as substrate by Cheng-Prusoff equation analysis.
The nature of data set [7]: Stability in Tris-HCl buffer spiked with alkaline phosphatase incubated for 24 hrs. It counts as physicochemical.
Data set [8] is described as follows: Stability in Tris-HCl buffer spiked with calf serum incubated for 24 hrs. The class given is physicochemical, cell-free. Conditions: cattle.
Data set [9] in a line: Stability in Tris-HCl buffer incubated for 24 hrs. It counts as physicochemical.
The nature of data set [10]: Stability in Tris-HCl buffer assessed as compound hydrolysis incubated for 24 hrs. It counts as physicochemical. The settings on record: read-out: Drug degradation.
Data set [11] concerns the target T2, Ribose-5-phosphate isomerase B. Kind of data set: Competitive inhibition of Escherichia coli RPIB using D-ribose-5-phosphate as substrate by spectrophotometric analysis.
The target in data set [12] is T3, Ribose-5-phosphate isomerase B. Kind of data set: Competitive inhibition of Mycobacterium tuberculosis RPIB using D-ribose-5-phosphate as substrate by spectrophotometric analysis.
Data set [13] shares this target. Kind of data set: Competitive inhibition of Mycobacterium tuberculosis RPIB using D-ribose-5-phosphate as substrate assessed as inhibition constant by spectrophotometric analysis.

A value given as a limit tells only on which side of the number the result lay.

In general, IC50 refers to the point on the concentration scale where inhibition reaches its midpoint. A higher IC50 goes with lower potency. The Ki is a measure of affinity in units of concentration, obtained from inhibition or displacement. With `O=S(=O)(O)OC[C@H]1OC(O)[C@H](O)[C@@H]1O` (some centres not stated), the values for the IC50 in [1], in data set [2] and in data set [3] were 320 µM, 160 µM and 120 µM, respectively. The Ki amounted to 180 µM in data set [4], 90 µM in data set [5] and 40 µM in data set [6]. Further, the Stability result in [7] is “Stable”; in [8] it was “Unstable”; in data set [9], “Stable”.
In the case of `O=P(O)(O)CC[C@H]1OC(O)[C@H](O)[C@@H]1O` (some centres not stated), the IC50 in data set [1] was over 3000 µM; in data set [2], 2410 µM; in data set [3] it was over 3000 µM. The Stability entry in [7], in data set [8] and in data set [9] was “Stable” in each case.
On to `CC(C(C(=O)O)C(=O)O)[C@@H](O)[C@@H](O)[C@@H](O)CCC(=O)O` (some centres not stated), for which the figures for the IC50 in data set [1], in [2] and in [3] were over 1500 µM, over 1500 µM and 470 µM, respectively. Besides, the Ki in data set [4] was over 750 µM; in data set [6], 290 µM. Besides, the Stability entry in data set [7], in data set [8] and in data set [9] was “Stable” each time.
`O=P(O)(O)OC[C@H]1O[C@@H](O)[C@H](O)[C@@H]1O`: the Stability result in data set [7] and in data set [8] was “Unstable” throughout. In addition, the degraded at 24 h in data set [10] turned out to be 10%.
Turning to `O=S(=O)(O)CC[C@H]1OC(O)[C@H](O)[C@@H]1O` (some centres not stated), the IC50 in data set [1] worked out at 620 µM; in data set [2], 480 µM; in data set [3] it was 240 µM. In addition, the Ki turned out to be 290 µM in data set [4], 170 µM in data set [5] and 110 µM in data set [6]. The Stability entry in [7], in data set [8] and in data set [9] was “Stable” throughout.
For `O=C(O)C(C[C@H]1OC(O)[C@H](O)[C@@H]1O)C(=O)O` (some centres not stated), the results for the IC50 in [1], in [2] and in data set [3] were 980 µM, 1340 µM and 810 µM, respectively. The Ki in [4] was determined as 450 µM; in data set [5], 670 µM; in [6] it was 340 µM. Also, the Stability result in [7], in data set [8] and in [9] was “Stable” in each case.
Take `CC(C(C(=O)O)C(=O)O)[C@@H](O)[C@@H](O)[C@@H](O)CCP(=O)(O)O` (some centres not stated): the values for the IC50 in data set [1], in data set [2] and in data set [3] were over 1500 µM, 1360 µM and 200 µM, respectively. Also, the Ki in data set [4] is over 750 µM; in data set [6], 80 µM. In addition, the Stability result in data set [7], in data set [8] and in data set [9] was “Stable” each time.
As to `O=C(O)[C@@H](O)[C@@H](O)[C@@H](O)COP(=O)(O)O` (single isomer, unassigned), the IC50 is 95 µM in data set [1]; 1400 µM in [2]; 21 µM in data set [3]; 1310 µM in data set [11]; 31 µM in [12]. For the same molecule, the values for the Ki in [4] and in [13] were 38 µM and 9 µM, respectively. For the same molecule, the Stability result in data set [7] and in [8] was “Unstable” in each case. Besides, the degraded at 24 h in [10] came to 20%.
